Changes are numbered by the printed parent chain. Like-named read-outs stand apart in the source and are kept apart here.
Key:
[1] = test system: ER alpha glucosidase; assay: Free oligosaccharide analysis (measure of ER alpha glucosidase inhibition); assay type: cell-based; conditions: FIG. 13, compared with UV-4
Experimental: Free glucosyl oligosaccharides were measured according to Alonzi et al. Biochem. J. (2008) 409, 571-580.

[2] = test system: glucosylceramide and lactosylceramide in Huh7.5 cells; assay: Cellular glucosylceramide and lactosylceramide measurement in Huh7.5 hepatoma cells (lipidomics); assay type: cell-based; conditions: human hepatoma cells (Huh7.5), 10 μM, 4 days
Experimental: Glycosphingolipids (including GlcCer and LacCer) were measured according to Wolf, C. and Quinn, P. J. Progress in lipid research (2008) 47, 15-36. Briefly, chloroform-methanol extracts of cellular lipids were subjected to HPLC to isolate the glycosphingolipid species from other cellular lipids, then subjected to two-dimentional mass-spectromertry with internal standards in order to quantify particular glycosphingolipid species.
Huh7.5 cells were grown in DMEM supplemented with 100 U/ml penicillin, […] streptomycin, 2 mM L-glutamine, 1×MEM, and 10% FBS. All incubations were at 37° C./5% CO2. The effect of iminosugar treatment on cellular lipid profiles was determined in cells after incubation for 4 days in the presence or absence of iminosugars, at which point they were harvested using trypsin/EDTA, washed 3 times in cold PBS, counted using trypan blue staining, and final cell pellets were resuspended in methanol:acetone (vol 1:1) prior to lipid profiling, A small volume of each sample was used for total protein estimation using the Bradford protein assay (Bio-Rad).
The methodology has been described in detail previously (Wolf, C., Quinn, P. J., Lipidomics: Practical aspects and applications. Progress in Lipid Research 2008, 47, 15-36: Quinn, P. J., Rainteau, D., Wolf, C., Lipidomics of the red cell in diagnosis of human disorders. Methods Mol Biol 2009, 579, 127-159). […]

[3] = biological target: T1, ceramide glucosyltransferase (Homo sapiens, UniProt Q16739); assay: Ceramide glucosyltransferase cellular assay (GM3 reduction in HL60 cells, NP-HPLC); assay type: cell-based; conditions: for IC50: 3 days, GM3 peak area
T1 construct: endogenous in cells; host or cells: HL60 cells
T1 sequence (Q16739 1-394): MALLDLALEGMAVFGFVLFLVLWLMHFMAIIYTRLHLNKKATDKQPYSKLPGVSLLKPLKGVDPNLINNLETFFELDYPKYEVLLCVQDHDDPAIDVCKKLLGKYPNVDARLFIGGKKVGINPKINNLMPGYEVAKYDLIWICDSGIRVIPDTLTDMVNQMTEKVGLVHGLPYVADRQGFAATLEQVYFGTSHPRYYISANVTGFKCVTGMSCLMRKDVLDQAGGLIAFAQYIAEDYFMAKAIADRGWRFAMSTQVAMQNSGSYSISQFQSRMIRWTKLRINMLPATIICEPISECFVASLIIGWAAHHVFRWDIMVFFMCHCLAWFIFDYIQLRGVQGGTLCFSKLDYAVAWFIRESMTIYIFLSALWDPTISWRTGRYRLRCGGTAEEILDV

[4] = biological target: T2, human placental β-glucocerebrosidase (Homo sapiens, UniProt P04062); assay: β-Glucocerebrosidase inhibition assay (4-methylumbelliferyl-β-glucoside, fluorogenic); assay type: biochemical
T2 construct: Human placental β-glucocerebrosidase was isolated and purified; from tissue; host or cells: human placenta
T2 sequence (P04062 40-536): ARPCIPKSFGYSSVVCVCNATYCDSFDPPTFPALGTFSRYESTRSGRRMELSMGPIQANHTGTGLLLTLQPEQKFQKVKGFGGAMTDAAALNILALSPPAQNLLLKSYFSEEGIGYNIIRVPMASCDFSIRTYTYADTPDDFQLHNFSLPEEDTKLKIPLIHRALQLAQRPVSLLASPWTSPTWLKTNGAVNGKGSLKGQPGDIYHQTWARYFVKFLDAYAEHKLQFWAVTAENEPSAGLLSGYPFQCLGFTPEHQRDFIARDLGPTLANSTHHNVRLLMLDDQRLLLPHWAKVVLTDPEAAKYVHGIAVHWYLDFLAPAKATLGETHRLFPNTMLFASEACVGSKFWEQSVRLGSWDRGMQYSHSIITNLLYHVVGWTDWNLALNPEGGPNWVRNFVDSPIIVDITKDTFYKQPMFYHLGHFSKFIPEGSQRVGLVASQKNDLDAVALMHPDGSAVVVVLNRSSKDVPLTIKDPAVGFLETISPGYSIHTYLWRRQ

[5] = biological target: T3, β-glucocerebrosidase (N370S mutant) (Homo sapiens, UniProt P04062, N409S); assay: β-Glucocerebrosidase activation (chaperone) assay in Gaucher N370S cells; assay type: cell-based; conditions: 3 days, versus untreated cells
T3 construct: mutant Gaucher lymphoblasts with the most common N370S mutation; endogenous in cells; host or cells: Gaucher (N370S) lymphoblasts
T3 sequence (P04062 40-536 N409S): T2 sequence (P04062 40-536) with N370S

SMILES | ER glucosidase inhibitory activity (free oligosaccharide analysis) [1] | inhibition of the cellular glucosylceramide / lactosylceramide pathway [2] | IC50 [3] [nM] | potency in cells relative to NB-DNJ ([3]; GM3 reduction, versus NB-DNJ (Zavesca)) | IC50 ([4]; human placental enzyme, 0.5 mM 4-MU-β-glucoside, pH 5.2) [nM] | Activation fold at 10 μM ([5]; 10 μM) [fold] | IC50 [4] [nM] | Activation fold (@ 1 μM) ([5]; 1 μM)
Cc1c(C)c2c(c(C)c1OCCCCCN1C[C@H](O)[C@@H](O)[C@H](O)[C@H]1CO)CC[C@@](C)(CCC[C@H](C)CCC[C@H](C)CCCC(C)C)O2 [Top-DNJ, tocopheryl-pentyl deoxynojirimycin] | virtually devoid of ER glucosidase inhibitory activity | near-complete inhibition |  |  |  |  |  | 
COCCCCCCCCCN1C[C@H](O)[C@@H](O)[C@H](O)[C@H]1CO [UV4, N-(9-methoxynonyl)deoxynojirimycin] |  |  | 190 ± 21 | approximately 100 times | 1850 ± 40 | 2.1 |  | 
[N-]=[N+]=Nc1ccc(NCCCCCCN2C[C@H](O)[C@@H](O)[C@H](O)[C@H]2CO)c([N+](=O)[O-])c1 [UV5, N—(N′-{4′-azido-2′-nitrophenyl)-6-aminohexyl)-deoxynojirimycin] |  |  | 49 ± 5 |  |  |  | 150 ± 30 | 1.7 (@ 1 μM) fold
